Assay results reported in patent US20240270821A1, “GIP/GLP1/GCG TRI-RECEPTOR AGONISTS AND USES THEREOF” (priority 2023, published 2024).
Where two headings read alike, the source gives them in different places. Starred links: 1 amine or outer side, 2 acyl side, 3 side chain; linkers in the order of their positions; H or OH if unused. Non-standard residues stand in square brackets, D forms with d. Groups on a side chain read outwards from the residue. *: point of attachment. C20 diacid = O=C(O)CCCCCCCCCCCCCCCCCCC(=O)*; C18 diacid = O=C(O)CCCCCCCCCCCCCCCCC(=O)*; αMePhe(2-F) = C[C@](N)(Cc1ccccc1F)C(=O)O; γGlu = O=C(O)[C@H](CCC(=O)[*:2])N[*:1]; αMe4Pal = C[C@](N)(Cc1ccncc1)C(=O)O; αMeY = C[C@](N)(Cc1ccc(O)cc1)C(=O)O; 4Pal = N[C@@H](Cc1ccncc1)C(=O)O; αMeL = CC(C)C[C@](C)(N)C(=O)O; Orn = NCCC[C@H](N)C(=O)O; AEEA = NCCOCCOCC(=O)O; Aib = CC(C)(N)C(=O)O

How the values were obtained:
Type in all cases: cell-based
[1] = target: T1, hGLP-1R (Homo sapiens, UniProt P43220); test: Functional cAMP activity in the presence of 1% HSA; conditions: read-out: cAMP Rel EC50, hGLP-1R
T1 sequence (P43220 24-463): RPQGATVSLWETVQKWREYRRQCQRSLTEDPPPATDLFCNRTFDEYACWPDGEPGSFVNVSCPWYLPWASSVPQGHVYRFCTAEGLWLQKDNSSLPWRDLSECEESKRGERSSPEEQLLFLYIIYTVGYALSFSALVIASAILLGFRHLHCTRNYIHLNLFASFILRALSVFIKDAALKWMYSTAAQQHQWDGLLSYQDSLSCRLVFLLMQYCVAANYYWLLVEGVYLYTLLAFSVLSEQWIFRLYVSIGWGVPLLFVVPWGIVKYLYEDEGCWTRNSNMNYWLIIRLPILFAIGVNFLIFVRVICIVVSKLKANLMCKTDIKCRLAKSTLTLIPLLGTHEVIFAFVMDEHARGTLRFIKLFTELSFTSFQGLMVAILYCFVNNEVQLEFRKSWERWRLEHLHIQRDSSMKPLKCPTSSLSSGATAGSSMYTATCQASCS

[2] = target: hGcgR (Homo sapiens, UniProt P47871); test: Functional cAMP activation in the presence of 0.1% casein (no HSA); conditions: read-out: Relative cAMP EC50, hGcgR;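 note: intracellular cAMP rise after 30 min at 37 °C, read by HTRF against a cAMP standard curve, scaled from buffer only (0%) to maximal control ligand response (100%)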
Chain of hGcgR (P47871 26-477): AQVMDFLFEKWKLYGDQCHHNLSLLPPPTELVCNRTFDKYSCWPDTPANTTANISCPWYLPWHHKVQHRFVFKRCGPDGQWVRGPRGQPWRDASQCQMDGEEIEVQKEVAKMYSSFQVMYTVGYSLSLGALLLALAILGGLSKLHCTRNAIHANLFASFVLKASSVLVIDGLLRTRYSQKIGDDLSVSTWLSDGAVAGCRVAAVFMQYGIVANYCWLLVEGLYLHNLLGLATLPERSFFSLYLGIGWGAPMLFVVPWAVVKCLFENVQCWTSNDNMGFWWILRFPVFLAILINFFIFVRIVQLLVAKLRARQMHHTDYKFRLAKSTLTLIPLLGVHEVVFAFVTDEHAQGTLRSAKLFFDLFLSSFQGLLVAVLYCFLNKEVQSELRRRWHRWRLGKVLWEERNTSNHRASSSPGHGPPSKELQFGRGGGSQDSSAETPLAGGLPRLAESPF

[3] = target: T2, hGIPR (Homo sapiens, UniProt P48546); test: Functional cAMP activity in the presence of 1% HSA; conditions: read-out: cAMP Rel EC50, hGIPR
T2 sequence (P48546 22-466): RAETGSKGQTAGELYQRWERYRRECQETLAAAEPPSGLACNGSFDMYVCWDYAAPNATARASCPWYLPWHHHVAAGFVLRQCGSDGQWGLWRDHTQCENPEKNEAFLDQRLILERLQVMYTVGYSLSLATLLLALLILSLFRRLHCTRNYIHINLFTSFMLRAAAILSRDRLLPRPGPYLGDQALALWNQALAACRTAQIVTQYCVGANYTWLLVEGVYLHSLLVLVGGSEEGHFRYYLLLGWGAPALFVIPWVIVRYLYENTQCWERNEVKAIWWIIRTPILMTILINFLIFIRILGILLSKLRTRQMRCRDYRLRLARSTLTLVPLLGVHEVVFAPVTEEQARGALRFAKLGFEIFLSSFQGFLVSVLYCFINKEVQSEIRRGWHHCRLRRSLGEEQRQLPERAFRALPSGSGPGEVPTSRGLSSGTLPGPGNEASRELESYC

[4] = target: T1, hGLP-1R; test: Functional cAMP activation in the presence of 0.1% casein (no HSA); conditions: read-out: Relative cAMP EC50, hGLP-1R;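 for Relative cAMP EC50, hGIPR: intracellular cAMP rise after 30 min at 37 °C read by HTRF against a standard curve, scaled between buffer alone (0%) and top control ligand concentration (100%), four-parameter fit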;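 for Relative cAMP EC50, hGLP-1R: intracellular cAMP rise after 30 min at 37 °C read by HTRF, normalized between buffer only (0%) and maximal control ligand (100%), four-parameter variable-slope fit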
[5] = target: T2, hGIPR; test: as above; conditions: read-out: Relative cAMP EC50, hGIPR
[6] = target: human GcgR (Homo sapiens, UniProt P47871); test: Functional cAMP activity in the presence of 1% HSA; conditions: read-out: cAMP Rel EC50, hGcgR
Chain of human GcgR (P47871 26-477): as the sequence (P47871 26-477) above

[7] = in the presence of 0.1% casein (no HSA), geometric mean

Substance | EC50 [1] [nM] | EC50 [2] [nM] | EC50 [3] [nM] | EC50 [4] [nM] | EC50 [5] [nM] | EC50 [6] [nM] | EC50 [2, 7] [nM] | EC50 [4, 7] [nM] | EC50 [5, 7] [nM]
H-Y[Aib]QGT[αMePhe(2-F)]TSD[4Pal]SILLDKK([γGlu-γGlu-C18 diacid])AQ[Aib]AFIEYLEEGGPSSGAPPPSGGGE-NH2 [Example 619] | 94 | 6.34 | 6.78 | 0.992 | 0.0685 | 819 | – | – | –
H-Y[Aib]QGT[αMePhe(2-F)]TSD[4Pal]SILLDKK([γGlu-γGlu-C18 diacid])AQ[Aib]AFIEYLEEGGPSSGAPPPSGSEE-NH2 [Example 610] | 130 | 5.75 | 7.02 | 1.66 | 0.133 | 536 | – | – | –
H-Y[Aib]QGT[αMePhe(2-F)]TSD[4Pal]SILLDKK([γGlu-γGlu-C18 diacid])AQ[Aib]AFIEYLEEGGPSSGAPPPSGSGE-NH2 [Example 618] | 88.9 | 5.57 | 4.63 | 1.53 | 0.0418 | 691 | – | – | –
H-Y[Aib]QGT[αMePhe(2-F)]TSD[4Pal]SILLDKK([γGlu-γGlu-C18 diacid])AQ[Aib]AFIEYLEEGGPSSGAPPPSGTE-NH2 [Example 509] | 69.2 | 4.66 | 5.01 | 0.65 | 0.0557 | 617 | – | – | –
H-Y[Aib]QGT[αMePhe(2-F)]TSD[4Pal]SILLDKK([γGlu-γGlu-C18 diacid])AQ[Aib]AFIEYLEEGGPSSGAPPPSGTEE-NH2 [Example 609] | 121 | 6.46 | 6.19 | 1.07 | 0.0784 | 647 | – | – | –
H-Y[Aib]QGT[αMePhe(2-F)]TSD[4Pal]SILLDKK([γGlu-γGlu-C18 diacid])AQ[Aib]AFIEYLEEGGPSSGEPPPSGTEE-NH2 [Example 608] | 201 | 7.82 | 8.51 | 1.87 | 0.124 | 669 | – | – | –
H-Y[Aib]QGT[αMePhe(2-F)]TSD[4Pal]SILLDKK([γGlu-γGlu-C18 diacid])AQ[Aib]AFIEYLEEGGPSSGEPPPSGTGE-NH2 [Example 607] | 139 | 8.91 | 6.63 | 1.15 | 0.0879 | 565 | – | – | –
H-Y[Aib]QGT[αMePhe(2-F)]TSD[4Pal]SILLDKK([γGlu-γGlu-C18 diacid])AQ[Aib]AFIEYLQEGGPSSGAPPPSGTE-NH2 [Example 553] | 51 | 4.53 | 2.97 | 0.398 | 0.0371 | 523 | – | – | –
H-Y[Aib]QGT[αMePhe(2-F)]TSD[4Pal]SILLDKK([γGlu-γGlu-C18 diacid])AQ[Aib]AFIE[4Pal]LEEGGPSSGAPPPSGTE-NH2 [Example 550] | 262 | 11.7 | 5.94 | 2.12 | 0.0876 | 996 | – | – | –
H-Y[Aib]QGT[αMePhe(2-F)]TSD[4Pal]SILLDKK([γGlu-γGlu-C18 diacid])AQ[Aib]AFIE[αMeY]LEEGGPSSGAPPPSGEGE-NH2 [Example 667] | 33 | 2.34 | 1.46 | 0.42 | 0.0217 | 215 | – | – | –
H-Y[Aib]QGT[αMePhe(2-F)]TSD[4Pal]SILLDKK([γGlu-γGlu-C18 diacid])AQ[Aib]AFIE[αMeY]LEEGGPSSGAPPPSGGGE-NH2 [Example 668] | 27.1 | 2.03 | 1.69 | 0.325 | 0.0198 | 203 | – | – | –
H-Y[Aib]QGT[αMePhe(2-F)]TSD[4Pal]SILLDKK([γGlu-γGlu-C18 diacid])AQ[Aib]AFIE[αMeY]LEEGGPSSGAPPPSGTE-NH2 [Example 551] | 38.2 | 1.74 | 1.88 | 0.303 | 0.0173 | 210 | – | – | –
H-Y[Aib]QGT[αMePhe(2-F)]TSD[4Pal]SILLDKK([γGlu-γGlu-C18 diacid])AQ[Aib]AFIE[αMeY]LEEGGPSSGAPPPSGTGE-NH2 [Example 664] | 27.7 | 2.12 | 1.18 | 0.356 | 0.0159 | 179 | – | – | –
H-Y[Aib]QGT[αMePhe(2-F)]TSD[4Pal]SILLDKQAQK([AEEA-AEEA-γGlu-C20 diacid])AFIEYLLEGGPSSGEPPPSEG-NH2 [Example 347] | 254 | – | 17.3 | – | – | 3650 | 8.88 | 0.798 | 0.0634
H-Y[Aib]QGT[αMePhe(2-F)]TSD[4Pal]SILLD[Orn]K([γGlu-γGlu-C18 diacid])AQ[Aib]AFIEYLEEGGPSSGAPPPSGTE-NH2 [Example 513] | 78.2 | 9.58 | 10.3 | 0.634 | 0.0956 | 1440 | – | – | –
H-Y[Aib]QGT[αMePhe(2-F)]TSD[4Pal]SILLD[Orn]K([γGlu-γGlu-C18 diacid])AQ[Aib]AFIEYLEEGGPSSGAPPPSGTGE-NH2 [Example 514] | 82 | 6.68 | 10 | 0.623 | 0.0744 | 1150 | – | – | –
H-Y[Aib]QGT[αMePhe(2-F)]TSD[4Pal]SILLD[Orn]K([γGlu-γGlu-C18 diacid])AQ[Aib]AFIEYLQEGGPSSGAPPPSGTEE-NH2 [Example 581] | 65.9 | 8.18 | 7.29 | 0.406 | 0.0812 | 1500 | – | – | –
H-Y[Aib]QGT[αMePhe(2-F)]TSD[4Pal]SILLD[Orn]K([γGlu-γGlu-C18 diacid])AQ[Aib]AFIEYLQEGGPSSGEPPPSGTEE-NH2 [Example 583] | 71 | 6.32 | 12.3 | 0.542 | 0.0692 | 1250 | – | – | –
H-Y[Aib]QGT[αMePhe(2-F)]TSD[4Pal]SILLD[Orn]K([γGlu-γGlu-C18 diacid])AQ[Aib]AFIE[αMeY]LEEGGPSSGAPPPSGTGE-NH2 [Example 665] | 32.8 | 2.94 | 2.1 | 0.284 | 0.0223 | 285 | – | – | –
H-Y[Aib]QGT[αMePhe(2-F)]TSD[4Pal]SILLD[Orn]K([γGlu-γGlu-C18 diacid])AQ[Aib][Orn]FIEYLQEGGPSSGAPPPSGTEE-NH2 [Example 582] | 35.5 | 10.5 | 10.8 | 0.298 | 0.103 | 1060 | – | – | –
H-Y[Aib]QGT[αMePhe(2-F)]TSD[4Pal]SILLD[Orn]K([γGlu-γGlu-C18 diacid])AQ[Aib][Orn]FIE[αMeY]LEEGGPSSGAPPPSGTGE-NH2 [Example 674] | 17.3 | 2.09 | 2.54 | 0.21 | 0.0264 | 168 | – | – | –
H-Y[Aib]QGT[αMePhe(2-F)]TSD[4Pal]SILLD[Orn]K([γGlu-γGlu-C18 diacid])AQ[αMe4Pal][Orn]FI[dE]YLIEGGPSSGEPPPSGTEE-NH2 [Example 584] | 137 | 5.29 | 5.5 | 1 | 0.0461 | 497 | – | – | –
H-Y[Aib]QGT[αMePhe(2-F)]TSD[4Pal]SI[αMeL]LDKK([γGlu-γGlu-C18 diacid])AQ[Aib]AFIEYLEEGGPSSGAPPPSGEGE-NH2 [Example 623] | 62.2 | 7.94 | 1.48 | 0.907 | 0.0224 | 832 | – | – | –
